# According to ChEMBL document CHEMBL1135034, “Design and synthesis of dual inhibitors for matrix metalloproteinase and cathepsin” (Bioorg Med Chem Lett, 2002):
# How the values were obtained:
# [1] = target: T1, Interstitial collagenase (Homo sapiens, UniProt P03956); test: Inhibition of Matrix metalloprotease-1
# T1 sequence (P03956 whole entry): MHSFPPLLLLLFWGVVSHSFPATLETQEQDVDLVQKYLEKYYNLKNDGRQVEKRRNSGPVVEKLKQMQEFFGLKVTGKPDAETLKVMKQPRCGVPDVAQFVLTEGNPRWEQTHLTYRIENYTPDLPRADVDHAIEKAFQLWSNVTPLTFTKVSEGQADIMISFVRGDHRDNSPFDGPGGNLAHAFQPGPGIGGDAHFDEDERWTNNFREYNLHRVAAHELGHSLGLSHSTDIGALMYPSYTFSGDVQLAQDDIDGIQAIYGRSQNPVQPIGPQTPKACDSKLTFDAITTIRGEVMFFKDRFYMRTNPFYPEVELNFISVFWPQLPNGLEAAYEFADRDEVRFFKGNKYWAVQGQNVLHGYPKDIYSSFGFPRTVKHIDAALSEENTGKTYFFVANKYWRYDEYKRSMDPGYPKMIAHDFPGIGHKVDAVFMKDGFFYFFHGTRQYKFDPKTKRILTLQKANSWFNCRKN
# [2] = target: Procathepsin L (Homo sapiens, UniProt P07711); test: Inhibition of Cathepsin L from human kidney; type: tissue-based
# Procathepsin L, sequence (P07711 whole entry): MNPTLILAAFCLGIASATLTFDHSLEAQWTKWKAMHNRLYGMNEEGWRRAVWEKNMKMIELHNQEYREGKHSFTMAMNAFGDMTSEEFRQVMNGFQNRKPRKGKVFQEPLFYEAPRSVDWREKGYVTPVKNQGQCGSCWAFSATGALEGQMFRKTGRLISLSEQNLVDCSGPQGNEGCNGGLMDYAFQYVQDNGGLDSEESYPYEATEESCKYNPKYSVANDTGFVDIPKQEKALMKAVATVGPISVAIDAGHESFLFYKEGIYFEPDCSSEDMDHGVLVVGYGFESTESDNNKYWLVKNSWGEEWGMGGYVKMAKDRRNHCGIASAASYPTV
SMILES,IC50 [1] [nM],IC50 [2] [nM]
C[C@@H](C=O)NC(=O)[C@H](Cc1ccccc1)NC(=O)OCc1ccccc1,> 1000,3
CC(C)C[C@H](CC(=O)NO)C(=O)N[C@@H](CC(C)C)C(=O)N[C@@H](C)C=O,47,23
CCOC(OCC)[C@H](C)NC(=O)[C@H](Cc1ccccc1)NC(=O)[C@@H](CC(=O)NO)CC(C)C,29,> 1000
CC(C)C[C@H](CC(=O)NO)C(=O)N[C@@H](Cc1ccccc1)C(=O)N[C@@H](C)C=O,25,15

# Second part, the compound after the results:
IC50 [1] [nM],IC50 [2] [nM],SMILES
1400,7,CC(C)C[C@H](CC(=O)NO)C(=O)N[C@@H](Cc1ccccc1)C(=O)N[C@H](C=O)CC(C)C
,> 1000,CNC(=O)[C@H](Cc1ccccc1)NC(=O)[C@@H](CC(=O)NO)CC(C)C
12,4300,CC(C)C[C@H](CC(=O)NO)C(=O)N[C@@H](Cc1ccccc1)C(=O)NCC=O
